Results on 14 compounds are retold here after US6028222A (priority 1996, dated 2000).

Where “and” joins values, the source holds several entries; their conditions need not be identical. Equal values may be shown once. Read-outs that look alike come from different tables or passages of the source.

The nature of series [1]: Stabilization of dilute paracetamol solution by free radical scavengers (formula A). In kind it is physicochemical. The note with it: 48 hours. The protocol:
(§1) The solutions thus prepared were divided in 10 ml, 100 ml or 80 ml capacity vials, stoppered with a Bromobutyl stopper and capped with an aluminium cap. The preparation was examined for any pink color development.
After autoclaving at 121° C. for 20 minutes, the vials were stored for 48 hours, either in the presence of actinic light at 5500° K. at room temperature or at 70° C. in the dark (formula A).

The nature of series [2]: Paracetamol instability in solution and breakdown products. It is filed as physicochemical. The conditions noted are these: aqueous or partially aqueous solutions.
Series [3] is described as follows: HPLC assay of paracetamol and codein before and after autoclaving. The note with it: for assay, after sterilization: 121° C. 20 minutes.
The nature of series [4]: Stabilization of dilute paracetamol solution by free radical scavengers (formulation B and C). In kind it is physicochemical. The method, then: as §1
Series [5] is described as follows: Stabilization of concentrated paracetamol solution by free radical scavengers. It is filed as physicochemical. The conditions noted are these: for Appearance upon exposure to light, color intensity: 48 hours actinic light; for Appearance at 70° C., color intensity: 48 hours, dark. The method, then:
The solutions thus prepared are divided in 10 ml capacity vials, stoppered with a Bromobutyl stopper and capped with an aluminium cap. After autoclaving at 121° C. for 20 minutes, the vials were stored for 48 hours, either in the presence of actinic light at 5500° K. at room temperature or at 70° C. in the dark. The preparation was examined for any change in color.

Series [6] can be described thus: Stabilization of dilute paracetamol + codein phosphate solution by free radical scavengers. It is filed as physicochemical. The note with it: 48 hours. The protocol:
The solutions thus prepared were divided in 10 ml capacity vials, stoppered with a Bromobutyl stopper and capped with an aluminium cap. […] The preparation was examined for any change in color.

The format of series [7] is physicochemical. The conditions noted are these: 48 hours.
The test system of series [8] is extensor digitorum longus muscle. The series is described as follows: Muscular tolerance (creatine kinase release from isolated muscle). On the set-up: species or system Sprague-Dawley rats. The conditions noted are these: for creatine kinase activity: 15 μl injected. The protocol: The pH of this solution was not adjusted. Apparent pH is equal to 7,6.
Sprague-Dawley rats, weighing between 260 g and 450 g were anesthesized with an i.p. injection of ethyl carbamate (2 ml/kg of a 50% aqueous solution). The extensor digitorum longus muscle was dissected from the right or left hind leg, and placed in buffer medium having the following composition:
The muscle is transiently fixed to a board and maintained in position by tendons. The test product was injected in an amount of 15 μl by means of a 25 μl-capacity Hamilton seringe no 702. The muscle is then placed over a grit and immersed in the buffer solution kept at 37° C. with carbogen bubbling throughout the incubation period. At 30 minutes intervals, the muscles were introduced in a tube containing fresh buffer at 37° C. The procedure was repeated 4 times.
Creatine kinase was measured using a Hitachi 704 model analyzer in conjunction with a reagent kit sold under tradename high performance Enzyline CK NAC 10 (Biomerieux).

Setting [9] is: containing 0.5 mg/ml of cystein hydrochloride.
Where [10] appears, read: no free radical scavenger added.
The mark [11] stands for this setting: 50 mg/ml, 124° C. 7 minutes, 48 hours room temperature dark.
The mark [12] stands for this setting: 0.2 mg/ml, 124° C. 7 minutes, 48 hours room temperature dark.
Where [13] appears, read: C.R.L. 0.2 mg/ml, 124° C. 7 minutes, 48 hours room temperature dark.

For the compound `NC(N)=S` [Thiourea], in series [1] (0.5 mg/ml), the “color at 70° C.” value is given as “colorless” and the “color upon exposure to light” value was “colorless”.

As to `Nc1ccc(O)cc1` [p-aminophenol], the p-aminophenol during storage entry in series [2] is “not detected”.

As to `COc1ccc2c3c1O[C@H]1[C@@H](O)C=C[C@H]4[C@@H](C2)N(C)CC[C@@]341` [codein], in series [3] (setting [9]), the “assay, non sterilized solution” value is 0.00042 g/mL and the “assay, after sterilization” value is 0.00042 g/mL. In series [3] (setting [10]), the “assay, non sterilized solution” value worked out at 0.00043 g/mL and the “assay, after sterilization” value is 0.00042 g/mL.

Consider `OC[C@@H](O)[C@@H](O)[C@H](O)[C@H](O)CO` [Mannitol], for which the “Solution appearance, color” value is given as “colorless” in series [4] (20 mg/ml, 124° C. 7 minutes, 48 hours room temperature dark); “colorless” in series [4] (40 mg/ml, 124° C. 7 minutes, 48 hours room temperature dark); “colorless” in series [4] (setting [11]). In addition, in series [5] (50 mg/ml), the “Appearance upon exposure to light, color intensity” value (shortened to “Appearance upon exposure to light”) is given as “colorless”. In addition, the “Appearance at 70° C., color intensity” value in series [5] (50 mg/ml) is reported as “colorless”.

In the case of `O[C@H](CS)[C@H](O)CS` (racemic) [Dithiothreitol], in series [6] (0.5 mg/ml), the “color at 70° C.” value is reported as “colorless” and the “color upon exposure to light” value is “colorless”. In series [5] (1 mg/ml), the “Appearance upon exposure to light” value is on record as “colorless” and the “Appearance at 70° C., color intensity” value is given as “colorless”. In series [1] (1 mg/ml), the “color at 70° C.” value is on record as “colorless” and the “color upon exposure to light” value is reported as “colorless”. For the same compound, in series [7] (1 mg/ml), the “color at 70° C.” value was “violet pink” and the “color upon exposure to light” value is “violet pink”.

In the case of `O=C1O[C@H]([C@@H](O)CO)C([O-])=C1O.[Na+]` [Sodium ascorbate], the “Appearance upon exposure to light” value in series [5] (1 mg/ml) was “yellow (+)”. Also, the “Appearance at 70° C., color intensity” value in series [5] (1 mg/ml) is given as “yellow (+)”. In addition, the “color at 70° C.” value in series [1] (0.2 mg/ml) is recorded as “pink”; in series [1] (0.4 mg/ml), “yellow”; in series [1] (0.6 mg/ml) it was “yellow”; in series [1] (1 mg/ml), “yellow”; in series [7] (1 mg/ml), “yellow”. Also, the “color upon exposure to light” value in series [1] (0.2 mg/ml) is recorded as “pink”; in series [1] (0.4 mg/ml) it was “colorless”; in series [1] (0.6 mg/ml) it was “pink”; in series [1] (1 mg/ml), “colorless”; in series [7] (1 mg/ml), “yellow”.

With `Cl.N[C@@H](CS)C(=O)O.O` [Cystein hydrochloride monohydrate], the “Solution appearance, color” value in series [4] (setting [12]) is reported as “colorless”; in series [4] (0.5 mg/ml, 124° C. 7 minutes, 48 hours room temperature dark), “colorless”. Besides, the “Dosage of paracetamol (in % of theoretical volume)” value in series [4] (setting [13]) is 99.2%; in series [4] (C.R.L. 0.5 mg/ml, 124° C. 7 minutes, 48 hours room temperature dark) it was 99.6%. Besides, the “Dosage of C.R.L. (in % of theoretical volume)” value in series [4] (dilute paracetamol solution, 2880 min, hydrochloride monohydrate) is 80% and 95%.

As to `CC(=O)N[C@@H](CS)C(=O)O` [N-acetylcystein], in series [6] (2.0 mg/ml), the “color at 70° C.” value is “grey” and the “color upon exposure to light” value is reported as “grey”. In addition, in series [4] (setting [12]), the “Dosage of C.R.L. (in % of theoretical volume)” value is reported as 88% and the “Solution appearance, color” value was “colorless”. In addition, the “Dosage of paracetamol (in % of theoretical volume)” value in series [4] (setting [13]) turned out to be 99.2%.

Regarding `N[C@@H](CCC(=O)N[C@@H](CS)C(=O)NCC(=O)O)C(=O)O` [Reduced glutathion], the “color at 70° C.” value in series [6] (2.0 mg/ml) and in series [1] (1 mg/ml) was “colorless” throughout. In addition, the “color upon exposure to light” value in series [6] (2.0 mg/ml) and in series [1] (1 mg/ml) was “colorless” each time. The “Appearance upon exposure to light” value in series [5] (1 mg/ml) and in series [5] (8 mg/ml) was “colorless” each time. In addition, the “Appearance at 70° C., color intensity” value in series [5] (1 mg/ml) and in series [5] (8 mg/ml) was “colorless” each time.

Glucose: in series [4] (setting [11]), the “Solution appearance, color” value is on record as “colorless”.

On to `Cl.N[C@@H](CS)C(=O)O` [Cystein hydrochloride], for which the “color at 70° C.” value in series [6] (0.05 mg/ml) is recorded as “pink”; in series [6] (1.0 mg/ml) it was “colorless”; in series [6] (2.0 mg/ml) it was “colorless”; in series [6] (5.0 mg/ml) it was “colorless”; in series [1] (0.05 mg/ml), “colorless”; in series [1] (0.1 mg/ml) it was “colorless”. In addition, the “color at 70° C.” value in series [1] (0.25 mg/ml), in series [1] (0.5 mg/ml), in series [1] (0.75 mg/ml), in series [1] (1 mg/ml), in series [1] (2 mg/ml) and in series [1] (5 mg/ml) was “colorless” each time. The “color upon exposure to light” value in series [6] (1.0 mg/ml), in series [6] (2.0 mg/ml), in series [6] (5.0 mg/ml), in series [1] (0.05 mg/ml), in series [1] (0.1 mg/ml) and in series [1] (0.25 mg/ml) was “colorless” each time. The “color upon exposure to light” value in series [1] (0.5 mg/ml), in series [1] (0.75 mg/ml), in series [1] (1 mg/ml), in series [1] (2 mg/ml) and in series [1] (5 mg/ml) was “colorless” each time. Moreover, in series [5] (1 mg/ml), the “Appearance upon exposure to light” value was “cloudy”. Also, in series [5] (1 mg/ml), the “Appearance at 70° C., color intensity” value is given as “cloudy”.

Triton-X: the creatine kinase activity in series [8] (30 min) was found to be 1802 ± 2114 IU/l; in series [8] (60 min), 1716 ± 978 IU/l; in series [8] (90 min) it was 155 ± 89 IU/l; in series [8] (120 min), 289 ± 251 IU/l. In series [8] (Total of 30-120 min), the “creatine kinase activity, Total” value turned out to be 14962 IU/l.

For the compound `O=S([O-])OS(=O)[O-].[Na+].[Na+]` [Sodium disulfite], in series [6] (0.295 mg/ml), the “color at 70° C.” value was “colorless” and the “color upon exposure to light” value is “colorless”. In series [5] (0.295 mg/ml), the “Appearance upon exposure to light” value is on record as “colorless” and the “Appearance at 70° C., color intensity” value is “colorless”. In series [7] (0.295 mg/ml), the “color at 70° C.” value is reported as “yellow” and the “color upon exposure to light” value was “yellow”.

For `OCC(O)CS` (stereo not drawn) [α-monothioglycerol], in series [6] (0.5 mg/ml), the “color at 70° C.” value is “grey” and the “color upon exposure to light” value was “grey”. In addition, in series [5] (1 mg/ml), the “Appearance upon exposure to light” value is given as “colorless” and the “Appearance at 70° C., color intensity” value is listed as “colorless”.
